Results taken from patent US20130230459A1, “RADIOLABELLED mGluR2 PET LIGANDS” (Janssen Pharmaceuticals, Inc., priority 2010, published 2013).
“And” between values parts separate entries of the source, which are not always exact repeats. Identical values can stand only once.

Legend:
[1] = Biodistribution studies of 11C tracers; type: in vivo, Wistar rats; settings: for SUV Blood / SUV Cerebellum / SUV Cerebrum total / SUV Cortex / SUV Hippocampus / SUV Striatum: normalized for body weight
Protocol: Biodistribution studies were carried out in healthy male Wistar rats (body weight 200-450 g) at 2 min, 30 min and 60 min post injection (p.i.) (n=3/time point). Rats were injected with about 11 MBq (2 min, 30 min analysis) or 22 MBq (60 min analysis) of the tracer via tail vein under anesthesia (2.5% isoflurane in O2 at 1 L/min flow rate) and sacrificed by decapitation at above specified time points. Blood and major organs were collected in tared tubes and weighed. The radioactivity in blood, organs and other body parts was measured using an automated gamma counter. The distribution of radioactivity in different parts of the body at different time points p.i. of the tracer was calculated and expressed as percentage of injected dose (% ID), and as percentage of injected dose per gram tissue (% ID/g) for the selected organs. % ID is calculated as cpm in organ/total cpm recovered. For calculation of total radioactivity in blood, blood mass was assumed to be 7% of the body mass.

[2] = molecular target: T1, mGluR2 (Rattus norvegicus, UniProt P31421); assay: MicroPET imaging: baseline, blocking and chase experiments; type: in vivo, Wistar rats; settings: for average SUV (total brain) after chase: 4650-5250 sec p.i.
T1 construct: from tissue; host or cells: brain of living male Wistar rats (in vivo microPET)
Protocol: Imaging experiments were performed on a Focus™ 220 microPET scanner (Concorde Microsystems, Knoxyille, Tenn., USA) using healthy male Wistar rats. During all scan sessions, animals were kept under gas anesthesia (2.5% isoflurane in O2 at 1 L/min flow rate).
Dynamic scans of 90 min were acquired. After reconstruction of the images (filtered back projection), they were spatially normalized to an in-house created [^11C]raclopride template of the rat brain in Paxinos coordinates. Automated and symmetric volumes of interest (VOIs) were generated for different brain regions (striatum, cortex, cerebellum, hippocampus, hypothalamus, thalamus, substantia nigra, nucleus accumbens and lateral globus pallidus) from which time-activity curves (TAC) were constructed for each individual scan, using PMOD software (v 3.1, PMOD Technologies Ltd.). The radioactivity concentration in the different brain regions was expressed as SUV as a function of time p.i. of the radiotracer by normalization for body weight of the animal and injected dose.
Rats were injected with 30-60 MBq of high specific activity formulation of [^11C]B-4, [^11C]B-2, [^11C]B-7, or [^11C]B-10 via the tail vein under isoflurane anesthesia (2.5% in O2 at 1 L/min flow rate).
For pretreatment and displacement experiments, compound A, compound B or ritanserin were dissolved and administered in a vehicle containing 20% (2-hydroxypropyl)-β-cyclodextrine and two equivalents hydrochloric acid. The ritanserin solution was protected from light.
A self-blocking study was done by subcutaneous (s.c.) administration of the authentic reference material (for [^11C]B-4) at ˜30 min prior to the radiotracer injection. Displacement studies were performed by i.v. injection of compound B at dose 4, 1, 0.3 and 0.1 mg/kg, compound A at dose 1 mg/kg or ritanserin at dose 0.3 mg/kg. All chase compounds were injected ˜30 min after radiotracer injection. A wash-out period of at least four days was maintained between the different pretreatment and displacement studies.
[^11C]B-4 was evaluated in vivo in three rats which were scanned dynamically for 90 min using μPET. The first rat was used for a baseline scan. The second rat was pretreated with authentic reference material B-4 via s.c. administration (dose 10 mg/kg) at 30 min prior to tracer injection. The third rat was used in a chase experiment and was injected i.v. with authentic reference material B-4 (dose 3 mg/kg) 30 min after tracer injection.
Two rats were injected with high specific activity tracer ([^11C]B-4, [^11C]B-2, [^11C]B-7, or [^11C]B-10) and scanned dynamically for 90 min. The first rat was scanned baseline, the second rat was injected i.v. with compound B (dose 4 mg/kg) 30 min after tracer injection. Table 16 gives an overview of the maximum and minimum SUV values in the chase experiment for the four studied tracers.
A chase experiment was performed for [^11C]B-2 with different doses of compound B (4, 1, 0.3, 0.1 mg/kg). The chase compound was injected i.v. 30 min after tracer injection. Table 17 gives an overview of the average SUV values before and after injection of the chase for the total brain.

T1 sequence (P31421 19-872): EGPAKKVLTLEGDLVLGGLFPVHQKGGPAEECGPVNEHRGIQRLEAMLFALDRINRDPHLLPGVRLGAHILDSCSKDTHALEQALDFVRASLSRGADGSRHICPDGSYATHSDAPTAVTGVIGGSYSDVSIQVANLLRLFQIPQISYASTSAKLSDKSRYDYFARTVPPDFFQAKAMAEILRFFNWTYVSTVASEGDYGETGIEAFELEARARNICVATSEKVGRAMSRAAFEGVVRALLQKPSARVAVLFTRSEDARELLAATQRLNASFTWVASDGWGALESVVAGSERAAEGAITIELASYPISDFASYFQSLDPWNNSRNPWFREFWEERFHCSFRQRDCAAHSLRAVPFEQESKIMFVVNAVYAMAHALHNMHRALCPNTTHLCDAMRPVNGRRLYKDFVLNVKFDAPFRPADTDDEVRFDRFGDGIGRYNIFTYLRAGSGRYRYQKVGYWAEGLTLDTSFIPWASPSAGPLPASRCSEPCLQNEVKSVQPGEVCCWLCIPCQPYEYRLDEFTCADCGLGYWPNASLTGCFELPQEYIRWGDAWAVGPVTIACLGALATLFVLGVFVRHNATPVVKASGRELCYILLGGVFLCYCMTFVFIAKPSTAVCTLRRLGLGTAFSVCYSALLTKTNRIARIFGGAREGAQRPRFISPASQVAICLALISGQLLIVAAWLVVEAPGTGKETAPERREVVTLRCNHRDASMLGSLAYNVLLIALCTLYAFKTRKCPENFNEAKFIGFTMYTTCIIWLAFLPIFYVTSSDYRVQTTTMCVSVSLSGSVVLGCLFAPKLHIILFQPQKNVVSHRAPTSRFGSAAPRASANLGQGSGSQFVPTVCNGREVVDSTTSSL

% ID Blood ([1]; 2 min p.i.): 4.3 % ID and 4.3 ± 0.6 % ID | % ID Carcass ([1]; 2 min p.i.): 38.4 ± 2.6 % ID | % ID Cerebellum ([1]; 2 min p.i.): 0.17 % ID and 0.174 ± 0.039 % ID | % ID Cerebrum total ([1]; 2 min p.i.): 0.69 % ID and 0.691 ± 0.146 % ID | % ID Cortex ([1]; 2 min p.i.): 0.097 ± 0.019 % ID | % ID Heart ([1]; 2 min p.i.): 4.6 ± 0.6 % ID | % ID Hippocampus ([1]; 2 min p.i.): 0.028 ± 0.008 % ID | % ID Intestines ([1]; 2 min p.i.): 8.5 ± 0.3 % ID | % ID Kidneys ([1]; 2 min p.i.): 6.6 ± 0.7 % ID | % ID Liver ([1]; 2 min p.i.): 33.5 ± 1.4 % ID | % ID Lungs ([1]; 2 min p.i.): 1.5 ± 0.1 % ID | % ID Rest of cerebrum ([1]; 2 min p.i.): 0.535 ± 0.121 % ID | % ID Spleen + Pancreas ([1]; 2 min p.i.): 1.4 ± 0.1 % ID | % ID Stomach ([1]; 2 min p.i.): 1.4 ± 0.2 % ID | % ID Striatum ([1]; 2 min p.i.): 0.032 ± 0.008 % ID | % ID Urine ([1]; 2 min p.i.): 0.1 ± 0.0 % ID | Total brain uptake ([1]; 2 min p.i.): 0.88 % ID and 0.88 ± 0.2 % ID | % ID Blood ([1]; 30 min p.i.): 2.7 ± 0.9 % ID | % ID Carcass ([1]; 30 min p.i.): 50.9 ± 3.4 % ID | % ID Cerebellum ([1]; 30 min p.i.): 0.291 ± 0.088 % ID | % ID Cerebrum total ([1]; 30 min p.i.): 0.914 ± 0.140 % ID | % ID Cortex ([1]; 30 min p.i.): 0.118 ± 0.041 % ID | % ID Heart ([1]; 30 min p.i.): 2.5 ± 0.8 % ID | % ID Hippocampus ([1]; 30 min p.i.): 0.045 ± 0.005 % ID | % ID Intestines ([1]; 30 min p.i.): 10.4 ± 1.2 % ID | % ID Kidneys ([1]; 30 min p.i.): 4.3 ± 1.0 % ID | % ID Liver ([1]; 30 min p.i.): 22.7 ± 3.0 % ID | % ID Lungs ([1]; 30 min p.i.): 1.1 ± 0.5 % ID | % ID Rest of cerebrum ([1]; 30 min p.i.): 0.704 ± 0.112 % ID | % ID Spleen + Pancreas ([1]; 30 min p.i.): 1.4 ± 0.2 % ID | % ID Stomach ([1]; 30 min p.i.): 3.7 ± 0.3 % ID | % ID Striatum ([1]; 30 min p.i.): 0.047 ± 0.008 % ID | % ID Urine ([1]; 30 min p.i.): 0.3 ± 0.1 % ID | Total brain uptake ([1]; 30 min p.i.): 1.23 ± 0.2 % ID | % ID Blood ([1]; 60 min p.i.): 2.0 % ID and 2.0 ± 0.0 % ID | % ID Carcass ([1]; 60 min p.i.): 55.8 ± 9.4 % ID | % ID Cerebellum ([1]; 60 min p.i.): 0.142 ± 0.029 % ID | % ID Cerebrum total ([1]; 60 min p.i.): 0.558 ± 0.042 % ID | % ID Cortex ([1]; 60 min p.i.): 0.080 ± 0.022 % ID | % ID Heart ([1]; 60 min p.i.): 1.2 ± 0.2 % ID | % ID Hippocampus ([1]; 60 min p.i.): 0.024 ± 0.006 % ID | % ID Intestines ([1]; 60 min p.i.): 15.6 ± 2.7 % ID | % ID Kidneys ([1]; 60 min p.i.): 2.1 ± 0.2 % ID | % ID Liver ([1]; 60 min p.i.): 20.1 ± 7.0 % ID | % ID Lungs ([1]; 60 min p.i.): 0.6 ± 0.1 % ID | % ID Rest of cerebrum ([1]; 60 min p.i.): 0.421 ± 0.010 % ID | % ID Spleen + Pancreas ([1]; 60 min p.i.): 0.7 ± 0.0 % ID | % ID Stomach ([1]; 60 min p.i.): 1.7 ± 0.4 % ID | % ID Striatum ([1]; 60 min p.i.): 0.033 ± 0.008 % ID | % ID Urine ([1]; 60 min p.i.): 0.3 ± 0.1 % ID | % ID present in liver and intestines ([1]; 60 min p.i.): 35.7 % ID | % ID present in the urinary system ([1]; 60 min p.i.): 2.4 % ID | Total brain uptake ([1]; 60 min p.i.): 0.71 ± 0.0 % ID | % ID present in the carcass ([1]; at all time points examined): ~50 % ID | average SUV (total brain), baseline ([2]; baseline scan, 930-1650 sec p.i.): 1.26 | % reduction of SUV (total brain) due to chase ([2]; chase compound B 4 mg/kg i.v.): 73% | % reduction of SUV (total brain) ([2]; compound B 0.1 mg/kg): 50% | average SUV (total brain) before chase ([2]; compound B 0.1 mg/kg, 930-1650 sec p.i.): 1.35 | average SUV (total brain) after chase ([2]; compound B 0.1 mg/kg): 0.67 | % reduction of SUV (total brain) ([2]; compound B 0.3 mg/kg): 64% | average SUV (total brain) before chase ([2]; compound B 0.3 mg/kg, 930-1650 sec p.i.): 2.15 | average SUV (total brain) after chase ([2]; compound B 0.3 mg/kg): 0.78 | % reduction of SUV (total brain) ([2]; compound B 1 mg/kg): 66% | average SUV (total brain) before chase ([2]; compound B 1 mg/kg, 930-1650 sec p.i.): 1.78 | average SUV (total brain) after chase ([2]; compound B 1 mg/kg): 0.61 | % reduction of SUV (total brain) ([2]; compound B 4 mg/kg): 74% | average SUV (total brain) before chase ([2]; compound B 4 mg/kg, 930-1650 sec p.i.): 1.36 | average SUV (total brain) after chase ([2]; compound B 4 mg/kg): 0.36 | SUV (total brain) before chase ([2]; maximum SUV, chase compound B 4 mg/kg i.v. 30 min after tracer): 1.4 | SUV (total brain) after chase ([2]; minimum SUV, chase compound B 4 mg/kg i.v. 30 min after tracer): 0.38
SMILES: [11CH3]Oc1c(F)ccc(F)c1C1CCN(c2ccn3c(CC4CC4)nnc3c2Cl)CC1 [[^11C]B-2, 8-chloro-3-(cyclopropylmethyl)-7-[4-(3,6-difluoro-2-[^11C]methoxyphenyl)-1-piperidinyl]-1,2,4-triazolo[4,3-a]pyridine]
SUV Blood ([1]; 2 min p.i.): 0.60 ± 0.01 | SUV Cerebellum ([1]; 2 min p.i.): 1.59 ± 0.03 | SUV Cerebrum total ([1]; 2 min p.i.): 1.32 ± 0.03 | SUV Cortex ([1]; 2 min p.i.): 1.46 ± 0.03 | SUV Hippocampus ([1]; 2 min p.i.): 0.90 ± 0.01 | SUV Striatum ([1]; 2 min p.i.): 1.22 and 1.22 ± 0.02 | SUV Blood ([1]; 30 min p.i.): 0.40 ± 0.01 | SUV Cerebellum ([1]; 30 min p.i.): 2.62 and 2.62 ± 0.04 | SUV Cerebrum total ([1]; 30 min p.i.): 1.96 ± 0.03 | SUV Cortex ([1]; 30 min p.i.): 1.77 ± 0.04 | SUV Hippocampus ([1]; 30 min p.i.): 1.49 ± 0.03 | SUV Striatum ([1]; 30 min p.i.): 2.14 and 2.14 ± 0.04 | SUV Blood ([1]; 60 min p.i.): 0.30 ± 0.01 | SUV Cerebellum ([1]; 60 min p.i.): 1.75 ± 0.04 | SUV Cerebrum total ([1]; 60 min p.i.): 1.11 ± 0.06 | SUV Cortex ([1]; 60 min p.i.): 1.28 ± 0.02 | SUV Hippocampus ([1]; 60 min p.i.): 0.73 ± 0.06 | SUV Striatum ([1]; 60 min p.i.): 1.72 ± 0.02 | character of tracer binding to mGluR2 in vivo ([2]; concluded from blocking/chase microPET experiments): binds reversible, specific and selective to mGluR2
